Experimental data: ChEMBL document CHEMBL1201862, “PubChem BioAssay data set” (2004)
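Protocol summary: plate cells (96-well), add compound at 5 concentrations, incubate 48 h, interpolate endpoints linearly. GI50 = concentration required for 50% inhibition of growth.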 Calls of active or inactive are those of the source. Cut-off read from the data, not from the text of the source: active = GI50 up to about 1.1 µM and inactive = higher.

Columns and labels:
Assay in all cases: inhibition of tumour cell growth, NCI panel, 48 h
DLD-1 = test system: DLD-1
DMS-114 = test system: DMS-114
DMS-273 = test system: DMS-273
HCC 2998 = test system: HCC 2998
HCT-15 = test system: HCT-15
HOP-92 = test system: HOP-92
HT-29 = test system: HT-29
K562 = test system: K562
KM-20L2 = test system: KM-20L2
KM12 = test system: KM12
M19-MEL = test system: M19-MEL
SK-OV-3 = test system: SK-OV-3
SNB-78 = test system: SNB-78
SW-620 = test system: SW-620
XF498 = test system: XF498
BT-549 = test system: BT-549
PC-3 = test system: PC-3
SK-MEL-5 = test system: SK-MEL-5
SR = test system: SR
T47D = test system: T47D

Row | SMILES | GI50 (DLD-1) | GI50 (DMS-114) | GI50 (DMS-273) | GI50 (HCC 2998) | GI50 (HCT-15) [µM] | GI50 (HOP-92) | GI50 (HT-29) | GI50 (K562) | GI50 (KM-20L2) | GI50 (KM12) | GI50 (M19-MEL) | GI50 (SK-OV-3) | GI50 (SNB-78) | GI50 (SW-620) | GI50 (XF498) | GI50 (BT-549) | GI50 (PC-3) | GI50 (SK-MEL-5) | GI50 (SR) | GI50 (T47D)
1 | Cc1cn(C2CC(O)C(CO)C2C)c(=O)[nH]c1=O (stereo unspecified) | > 100 µM (inactive) | > 100 µM (inactive) | > 100 µM (inactive) | > 100 µM (inactive) | > 100 | > 100 µM (inactive) | > 100 µM (inactive) | > 100 µM (inactive) | > 100 µM (inactive) | > 100 µM (inactive) | > 100 µM (inactive) | > 100 µM (inactive) | > 100 µM (inactive) | > 100 µM (inactive) | > 100 µM (inactive) |  |  |  |  | 
2 | O[C@@]12Cc3c([nH]c4ccccc34)[C@@H]3Oc4cccc5c4[C@@]31CCN(CC1CC1)[C@@H]2C5 |  |  |  | 17.7 µM (inactive) | 18.1 | 12.4 µM (inactive) | 15.9 µM (inactive) | 22.6 µM (inactive) |  | 39.7 µM (inactive) |  |  |  | 11.4 µM (inactive) |  | 19.8 µM (inactive) | 17 µM (inactive) | 24.3 µM (inactive) | 34 µM (inactive) | 
3 | c1ccc(CCn2cncn2)cc1 | > 100 µM (inactive) | > 100 µM (inactive) | > 100 µM (inactive) | > 100 µM (inactive) | > 100 | > 100 µM (inactive) | > 100 µM (inactive) | > 100 µM (inactive) | > 100 µM (inactive) | > 100 µM (inactive) | > 100 µM (inactive) | > 100 µM (inactive) | > 100 µM (inactive) | > 100 µM (inactive) |  |  |  | > 100 µM (inactive) | > 100 µM (inactive) | 
4 | CC(C)=CCC/C(C)=C/CCC1(C)C=Cc2c(c3ccccc3oc2=O)O1 (stereo unspecified) | 14.7 µM (inactive) | 15.8 µM (inactive) | 16.9 µM (inactive) | 17.7 µM (inactive) | 16 | 12.2 µM (inactive) | 18.8 µM (inactive) | 23.6 µM (inactive) | 19.4 µM (inactive) | 18.5 µM (inactive) | 17.3 µM (inactive) | 27.3 µM (inactive) | > 56.2 µM (inactive) | 19.4 µM (inactive) | 15.5 µM (inactive) |  |  | 14.7 µM (inactive) |  | 
5 | CNS(=O)(=O)NN(C)S(=O)(=O)c1ccc(F)cc1 | > 100 µM (inactive) | > 100 µM (inactive) | > 100 µM (inactive) | > 100 µM (inactive) | > 100 | > 100 µM (inactive) | > 100 µM (inactive) | > 100 µM (inactive) | > 100 µM (inactive) | > 100 µM (inactive) |  | > 100 µM (inactive) |  | > 100 µM (inactive) | > 100 µM (inactive) |  |  | > 100 µM (inactive) |  | 
6 | CCSc1nc(N/N=C/c2cccs2)c2cnn(CO)c2n1 |  |  |  |  | 4.88 | 16.9 µM (inactive) | 3.85 µM (inactive) | 4.13 µM (inactive) |  | 0.408 µM (active) |  | 14.6 µM (inactive) |  | 4.42 µM (inactive) |  |  | 6.58 µM (inactive) | 3.46 µM (inactive) | 5.9 µM (inactive) | 3.8 µM (inactive)
7 | COc1cc2c(cc1OC)-c1cc3ccccc3c[n+]1CC2 |  |  |  | > 100 µM (inactive) |  | > 100 µM (inactive) | > 100 µM (inactive) | 48.4 µM (inactive) |  | 65.3 µM (inactive) |  | > 100 µM (inactive) |  | > 100 µM (inactive) |  | 54.7 µM (inactive) | > 100 µM (inactive) | 22.9 µM (inactive) | 68.2 µM (inactive) | 42.6 µM (inactive)
8 | CCCCCCCCCCCCCCCCCc1cc(Cl)nc(Cl)n1 |  |  |  | > 100 µM (inactive) | > 100 |  | > 100 µM (inactive) | > 100 µM (inactive) |  | > 100 µM (inactive) |  | > 100 µM (inactive) |  | > 100 µM (inactive) |  | > 100 µM (inactive) | > 100 µM (inactive) | > 100 µM (inactive) | > 100 µM (inactive) | 
9 | N#Cc1ccc(-c2nc(C#N)c(N)o2)cc1 |  |  |  | > 10 µM (inactive) | > 10 | > 10 µM (inactive) | > 10 µM (inactive) | > 10 µM (inactive) |  | > 10 µM (inactive) |  | > 10 µM (inactive) |  | > 10 µM (inactive) |  | > 10 µM (inactive) | > 10 µM (inactive) | > 10 µM (inactive) | > 10 µM (inactive) | > 10 µM (inactive)
10 | O=C(Nc1cccc(O)c1)C(=O)C(C(=O)c1ccccc1F)C1OC(=O)c2ccccc21 (stereo unspecified) | 34.2 µM (inactive) | 13.8 µM (inactive) | 24.2 µM (inactive) | 22.2 µM (inactive) | 18.3 | 68.1 µM (inactive) | 36.7 µM (inactive) | 37.3 µM (inactive) | 25.7 µM (inactive) | 18.4 µM (inactive) | 18.1 µM (inactive) | 36.1 µM (inactive) | 24.2 µM (inactive) | 35.7 µM (inactive) |  |  |  | 36.1 µM (inactive) | 24.9 µM (inactive) | 
11 | COC1=C2CC(C)CC(OC)C(O)C(C)/C=C(\C)C(OC(N)=O)C(OC)/C=C\C=C(/C)C(=O)NC(=C(/C=N/C(C)(C)C)C1=O)C2=O (stereo unspecified) | 6.05 µM (inactive) | 0.466 µM (active) | 0.986 µM (active) | 1.68 µM (inactive) | 6.28 | 0.303 µM (active) | 3.19 µM (inactive) | 0.82 µM (active) | 2.28 µM (inactive) | 4.62 µM (inactive) | 4.45 µM (inactive) | 24.7 µM (inactive) | 13.9 µM (inactive) | 3.73 µM (inactive) | 0.767 µM (active) |  |  | 2.79 µM (inactive) |  | 
12 | CCOC(=O)/C=C/c1c(C)[nH]c(=O)[nH]c1=O | > 250 µM (inactive) | 120 µM (inactive) | > 176 µM (inactive) | > 250 µM (inactive) | > 250 | 19.1 µM (inactive) | > 250 µM (inactive) | > 250 µM (inactive) | > 250 µM (inactive) | > 250 µM (inactive) | > 250 µM (inactive) | > 141 µM (inactive) | > 250 µM (inactive) | > 250 µM (inactive) | > 250 µM (inactive) |  |  | > 250 µM (inactive) |  | 
13 | CN(CCCNc1ccc2ncn3c4ccccc4c(=O)c1c23)CCCN1C(=O)c2cccc3cc([N+](=O)[O-])cc(c23)C1=O |  |  |  | 0.0115 µM (active) | 0.0153 | 1.04 µM (active) | 0.00149 µM (active) | 0.0201 µM (active) |  | 0.0292 µM (active) |  | 1.28 µM (inactive) |  | 0.00325 µM (active) |  | 0.106 µM (active) | 1.14 µM (inactive) | 0.01 µM (active) | 0.001 µM (active) | 1.18 µM (inactive)
14 | CNC1=C(C)C(=O)C2=C(C1=O)C(COC(N)=O)C1(OC)C3NC3CN21 (stereo unspecified) |  |  |  | 0.313 µM (active) | 0.391 | > 10 µM (inactive) | 0.207 µM (active) | 4.07 µM (inactive) |  | 0.413 µM (active) |  | 1.27 µM (inactive) |  | 0.385 µM (active) |  |  | 2.94 µM (inactive) | 0.0445 µM (active) | 0.0462 µM (active) | 1.5 µM (inactive)
15 | C/C(=N\NS(=O)(=O)c1ccccc1)c1ccccc1 | > 100 µM (inactive) | > 100 µM (inactive) | > 100 µM (inactive) | > 100 µM (inactive) | > 100 | > 100 µM (inactive) | > 100 µM (inactive) | > 100 µM (inactive) | > 100 µM (inactive) | > 100 µM (inactive) |  | > 100 µM (inactive) | > 100 µM (inactive) | > 100 µM (inactive) | > 100 µM (inactive) |  |  | > 100 µM (inactive) |  | 
16 | Oc1ccc2ccccc2c1/N=N/c1cccc2ccccc12 |  |  |  | > 100 µM (inactive) | > 100 | > 100 µM (inactive) |  | > 100 µM (inactive) |  | > 100 µM (inactive) |  | 52.6 µM (inactive) |  | > 100 µM (inactive) |  | > 100 µM (inactive) | > 100 µM (inactive) | > 100 µM (inactive) | > 100 µM (inactive) | > 100 µM (inactive)
17 | O=C1Sc2ccccc2/C1=N/Nc1ccccc1[N+](=O)[O-] |  |  |  | > 100 µM (inactive) | > 100 | > 100 µM (inactive) | > 100 µM (inactive) | > 100 µM (inactive) |  | > 100 µM (inactive) |  | 86.9 µM (inactive) |  | > 100 µM (inactive) |  |  | > 100 µM (inactive) | 65.2 µM (inactive) | > 100 µM (inactive) | 10.2 µM (inactive)
18 | O=C1C(=O)c2ccccc2C=C1[N+](=O)[O-] |  |  |  | 80.9 µM (inactive) | 32.7 | 55.8 µM (inactive) | > 100 µM (inactive) | 53.5 µM (inactive) |  | 70.3 µM (inactive) |  | > 100 µM (inactive) |  | 32.9 µM (inactive) |  | > 100 µM (inactive) | 48.2 µM (inactive) | 17 µM (inactive) | 29.4 µM (inactive) | 32.8 µM (inactive)
19 | O=C1CNc2cc(N3CCCCC3)ccc2N1 |  |  |  | > 100 µM (inactive) | > 100 | > 100 µM (inactive) | 8.32 µM (inactive) | > 100 µM (inactive) |  | 49.4 µM (inactive) |  | > 100 µM (inactive) |  | > 100 µM (inactive) |  | > 100 µM (inactive) | > 100 µM (inactive) | 43.8 µM (inactive) | 74.6 µM (inactive) | > 100 µM (inactive)
20 | C=C(C)C(=O)O[C@H]1CC2=C[C@@H](C[C@@]3(C)O[C@@H]3[C@H]3OC(=O)C(=C)[C@@H]31)OC2=O [ELEPHANTOPIN] | 0.897 µM (active) | 4.47 µM (inactive) | 2.79 µM (inactive) | 5.11 µM (inactive) | 0.927 | 1.13 µM (inactive) | 2.48 µM (inactive) |  | 4.69 µM (inactive) | 3.31 µM (inactive) | 2.49 µM (inactive) | 11.5 µM (inactive) | 2.09 µM (inactive) | 0.695 µM (active) |  |  |  | 4.29 µM (inactive) |  | 
